# According to PubChem BioAssay AID1963971 (Molecular Pharmacology Branch, DTP, NCI, 2024):
# Tested on: 953936-095-R-J2-PDC spheroids with HUVEC/MSC, viability
# Assay: Anticancer human tumor 953936-095-R-J2-PDC patient-derived cervical squamous cell carcinoma cell line growth inhibition [PI3K]
# Details: for IC50: curve of first compound; for viability, T/C: stronger effect = lower value
# Excerpt: Combinatorial screen of targeted agents with the PI3K inhibitors inavolisib, alpelisib, duvelisib, and copanlisib in multi-cell type tumor spheroids
# A high-throughput screen of multi-cell type tumor spheroids was designed to identify active combinations of targeted small molecules and PI3K pathway inhibitors. Complex spheroids include a stromal component modeled by human endothelial cells (HUVEC) and fibroblasts modeled by human mesenchymal stem cells (MSCs). The concentration ranges selected for each drug and investigational agent were based upon clinically achievable concentrations if the clinical Cmax of the agent was known.
# Compounds. The drugs and investigational agents: inavolisib (NSC800729), alpelisib (NSC765974), duvelisib (NSC772469), copanlisib (NSC816437), ipatasertib (NSC767898), afuresertib (NSC778305), talazoparib (NSC767125), sapanisertib (NSC764658), selumetinib (NSC741078), tovorafenib (DAY101, NSC766906), vemurafenib (NSC761431), ravoxertinib (NSC781343), sotorasib (NSC818433), MRTX1133 (NSC 836407), abemaciclib (NSC 768073), palbociclib (NSC758247), venetoclax (NSC 766270), SY5609 (NSC837396), enzalutamide (NSC755605), and darolutamide (NSC825331), were obtained from the National Cancer Institute (NCI) Developmental Therapeutics Program Chemical Repository. The FDA-approved anticancer drug set is available from the NCI Developmental Therapeutics Program. […] The stock solutions were prepared in dimethyl sulfoxide (DMSO, Sigma-Aldrich, St. Louis, MO, cat. D2650) at 800-fold the tested concentration and stored at -70 degrees C prior to their use. All drugs and investigational agents were tested over a range starting from a high concentration at or near the clinical Cmax and decreasing in half-log increments. If the clinical Cmax for an agent had not been determined, the highest concentration tested was 10 microM.
# Cell Culture. All cells were maintained in an incubator at 37 degrees C and 5% CO2 with 95% humidity. The PDC lines were cultured according to standard operating procedures established by the NCI PDMR (https://pdmr.cancer.gov/sops/default.htm). All PDCs were thawed and cultured in Matrigel-coated flasks prepared with a working solution of 1X Ham's F-12 nutrient mix, without supplementation (Invitrogen, Waltham, MA, cat. 11765054), 100 U/mL penicillin-streptomycin (Invitrogen, cat. 15140122), and 2.5% Matrigel (Corning Inc., Corning, NY, cat. 354248) for the first three passages. The 354836-022-R-J1-PDC, 475296-252-R-J1-PDC, and 997726-040-R-J2-PDC lines were cultured in 6A media, which includes advanced DMEM/F-12 (Thermo Fisher Scientific, cat. 12634028), 10 mM HEPES (Thermo Fisher Scientific, cat. 15630080), 1X GlutaMAX supplement (Thermo Fisher Scientific, cat. 35050061), 0.1 mg/mL primocin (InvivoGen, San Diego, CA, cat. ant-pm-2), 10% defined fetal bovine serum, heat inactivated (HyClone Laboratories Inc., Logan, UT, cat. SH30070.03HI), 50% L-WRN conditioned media (ATCC, cat. CRL-3276), 1.25 mM N-Acetyl-L-cysteine (Sigma-Aldrich, cat. A9165), 10 mM nicotinamide (Sigma-Aldrich, cat. N0636), 1X B-27 supplement (Thermo Fisher Scientific, cat. 17504044), 1X N-2 supplement (Thermo Fisher Scientific, cat. 17502048), and 10 microM Y-27632 dihydrochloride (Tocris Bioscience, Bristol, United Kingdom, cat. 1254). The 624824-186-R-J2-PDC line was cultured in 6C/Colon 1B media, which includes all 6A media components plus 50 ng/mL human EGF recombinant protein (Thermo Fisher Scientific, cat. PHG0311). […]
# [1] = second compound 0.00316 µM, first compound 0.0316 µM
# [2] = second compound 0.00316 µM, first compound 0.1 µM
# [3] = second compound 0.01 µM, first compound 0.0316 µM
# [4] = second compound 0.01 µM, first compound 0.1 µM
# [5] = second compound 0.0316 µM, first compound 0.0316 µM
# [6] = second compound 0.0316 µM, first compound 0.1 µM
# [7] = second compound 0.1 µM, first compound 0.0316 µM
# [8] = second compound 0.1 µM, first compound 0.1 µM
# [9] = second compound 0.316 µM, first compound 0.0316 µM
# [10] = second compound 0.316 µM, first compound 0.1 µM
# [11] = second compound 1 µM, first compound 0.0316 µM
# [12] = second compound 1 µM, first compound 0.1 µM
# 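Note: spheroids exposed to compounds for seven days before read-out.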
smiles,measurement,setting,value
CC(=O)c1c(C)c2cnc(Nc3ccc(N4CCNCC4)cn3)nc2n(C2CCCC2)c1=O + CC(Nc1ccc2c(c1)OCCn1cc(N3C(=O)OCC3C(F)F)nc1-2)C(N)=O,IC50,second compound 0.00316 µM,> 0.1 µM
same,IC50,second compound 0.01 µM,> 0.1 µM
same,IC50,second compound 0.0316 µM,> 0.1 µM
same,IC50,second compound 0.1 µM,> 0.1 µM
same,IC50,second compound 0.316 µM,< 0.000316 µM
same,IC50,second compound 1 µM,< 0.000316 µM
same,"viability, T/C","second compound 0.00316 µM, first compound 0.000316 µM",89.4%
same,"viability, T/C","second compound 0.00316 µM, first compound 0.001 µM",93.1%
same,"viability, T/C","second compound 0.00316 µM, first compound 0.00316 µM",98%
same,"viability, T/C","second compound 0.00316 µM, first compound 0.01 µM",99.6%
same,"viability, T/C",[1],93.5%
same,"viability, T/C",[2],93.3%
same,"viability, T/C","second compound 0.01 µM, first compound 0.000316 µM",94.9%
same,"viability, T/C","second compound 0.01 µM, first compound 0.001 µM",87.5%
same,"viability, T/C","second compound 0.01 µM, first compound 0.00316 µM",88.9%
same,"viability, T/C","second compound 0.01 µM, first compound 0.01 µM",93.8%
same,"viability, T/C",[3],85.7%
same,"viability, T/C",[4],92%
same,"viability, T/C","second compound 0.0316 µM, first compound 0.000316 µM",76.3%
same,"viability, T/C","second compound 0.0316 µM, first compound 0.001 µM",74.9%
same,"viability, T/C","second compound 0.0316 µM, first compound 0.00316 µM",74.8%
same,"viability, T/C","second compound 0.0316 µM, first compound 0.01 µM",76.5%
same,"viability, T/C",[5],79.1%
same,"viability, T/C",[6],68.4%
same,"viability, T/C","second compound 0.1 µM, first compound 0.000316 µM",66.9%
same,"viability, T/C","second compound 0.1 µM, first compound 0.001 µM",59.6%
same,"viability, T/C","second compound 0.1 µM, first compound 0.00316 µM",58.6%
same,"viability, T/C","second compound 0.1 µM, first compound 0.01 µM",54.5%
same,"viability, T/C",[7],55.6%
same,"viability, T/C",[8],54.5%
same,"viability, T/C","second compound 0.316 µM, first compound 0.000316 µM",35.2%
same,"viability, T/C","second compound 0.316 µM, first compound 0.001 µM",34.6%
same,"viability, T/C","second compound 0.316 µM, first compound 0.00316 µM",35.6%
same,"viability, T/C","second compound 0.316 µM, first compound 0.01 µM",37.7%
same,"viability, T/C",[9],33.6%
same,"viability, T/C",[10],35.3%
same,"viability, T/C","second compound 1 µM, first compound 0.000316 µM",25%
same,"viability, T/C","second compound 1 µM, first compound 0.001 µM",22.6%
same,"viability, T/C","second compound 1 µM, first compound 0.00316 µM",21.7%
same,"viability, T/C","second compound 1 µM, first compound 0.01 µM",22%
same,"viability, T/C",[11],25.5%
same,"viability, T/C",[12],22.9%
CNC(=O)c1ccc(N2C(=S)N(c3ccc(C#N)c(C(F)(F)F)c3)C(=O)C2(C)C)cc1F + CC(Nc1ccc2c(c1)OCCn1cc(N3C(=O)OCC3C(F)F)nc1-2)C(N)=O,IC50,second compound 0.00316 µM,> 10 µM
same,IC50,second compound 0.01 µM,> 10 µM
same,IC50,second compound 0.0316 µM,> 10 µM
same,IC50,second compound 0.1 µM,4.15 µM
same,IC50,second compound 0.316 µM,< 0.0316 µM
same,IC50,second compound 1 µM,< 0.0316 µM
same,"viability, T/C",[1],89.1%
same,"viability, T/C",[2],103%
same,"viability, T/C","second compound 0.00316 µM, first compound 0.316 µM",90.5%
same,"viability, T/C","second compound 0.00316 µM, first compound 1 µM",87.3%
same,"viability, T/C","second compound 0.00316 µM, first compound 3.16 µM",88.1%
same,"viability, T/C","second compound 0.00316 µM, first compound 10 µM",77.5%
same,"viability, T/C",[3],93.4%
same,"viability, T/C",[4],92.7%
same,"viability, T/C","second compound 0.01 µM, first compound 0.316 µM",90.3%
same,"viability, T/C","second compound 0.01 µM, first compound 1 µM",84.4%
same,"viability, T/C","second compound 0.01 µM, first compound 3.16 µM",90.5%
same,"viability, T/C","second compound 0.01 µM, first compound 10 µM",88.6%
same,"viability, T/C",[5],75.9%
same,"viability, T/C",[6],78.6%
same,"viability, T/C","second compound 0.0316 µM, first compound 0.316 µM",87%
same,"viability, T/C","second compound 0.0316 µM, first compound 1 µM",71%
same,"viability, T/C","second compound 0.0316 µM, first compound 3.16 µM",74.5%
same,"viability, T/C","second compound 0.0316 µM, first compound 10 µM",71.4%
same,"viability, T/C",[7],60.7%
same,"viability, T/C",[8],55.5%
same,"viability, T/C","second compound 0.1 µM, first compound 0.316 µM",57.2%
same,"viability, T/C","second compound 0.1 µM, first compound 1 µM",53.4%
same,"viability, T/C","second compound 0.1 µM, first compound 3.16 µM",50.5%
same,"viability, T/C","second compound 0.1 µM, first compound 10 µM",47.8%
same,"viability, T/C",[9],32.5%
same,"viability, T/C",[10],35.6%
same,"viability, T/C","second compound 0.316 µM, first compound 0.316 µM",35.1%
same,"viability, T/C","second compound 0.316 µM, first compound 1 µM",36.4%
same,"viability, T/C","second compound 0.316 µM, first compound 3.16 µM",33.3%
same,"viability, T/C","second compound 0.316 µM, first compound 10 µM",31.5%
same,"viability, T/C",[11],22.4%
same,"viability, T/C",[12],22.8%
same,"viability, T/C","second compound 1 µM, first compound 0.316 µM",21.5%
same,"viability, T/C","second compound 1 µM, first compound 1 µM",21.8%
same,"viability, T/C","second compound 1 µM, first compound 3.16 µM",24.1%
same,"viability, T/C","second compound 1 µM, first compound 10 µM",23%
